# Laboratory results as given in US20180271847A1, “TREATMENT OF ACUTE TRAUMATIC INJURY” (priority 2015, published 2018).
# System: P-zero myelin protein
# Assay: P0 myelin protein in tissue lysates after sciatic nerve crush
# Type: in vivo
# Conditions: mice, tissue lysates at 21 days post-injury/treatment
smiles,measurement,value
"Nc1ccncc1 [4-AP, 4-aminopyridine]",more P0 protein in the lesion area than in nerves of vehicle-treated animals,61+/−15%
